Key:
Format in all cases: binding
panel of 442 kinases [1] = target: T1, panel of 442 kinases (Homo sapiens, UniProt O00444); conditions: Compound Concentration 10 µM
T1 construct: purchased KINOMEscan
T1 sequence (O00444 1-970): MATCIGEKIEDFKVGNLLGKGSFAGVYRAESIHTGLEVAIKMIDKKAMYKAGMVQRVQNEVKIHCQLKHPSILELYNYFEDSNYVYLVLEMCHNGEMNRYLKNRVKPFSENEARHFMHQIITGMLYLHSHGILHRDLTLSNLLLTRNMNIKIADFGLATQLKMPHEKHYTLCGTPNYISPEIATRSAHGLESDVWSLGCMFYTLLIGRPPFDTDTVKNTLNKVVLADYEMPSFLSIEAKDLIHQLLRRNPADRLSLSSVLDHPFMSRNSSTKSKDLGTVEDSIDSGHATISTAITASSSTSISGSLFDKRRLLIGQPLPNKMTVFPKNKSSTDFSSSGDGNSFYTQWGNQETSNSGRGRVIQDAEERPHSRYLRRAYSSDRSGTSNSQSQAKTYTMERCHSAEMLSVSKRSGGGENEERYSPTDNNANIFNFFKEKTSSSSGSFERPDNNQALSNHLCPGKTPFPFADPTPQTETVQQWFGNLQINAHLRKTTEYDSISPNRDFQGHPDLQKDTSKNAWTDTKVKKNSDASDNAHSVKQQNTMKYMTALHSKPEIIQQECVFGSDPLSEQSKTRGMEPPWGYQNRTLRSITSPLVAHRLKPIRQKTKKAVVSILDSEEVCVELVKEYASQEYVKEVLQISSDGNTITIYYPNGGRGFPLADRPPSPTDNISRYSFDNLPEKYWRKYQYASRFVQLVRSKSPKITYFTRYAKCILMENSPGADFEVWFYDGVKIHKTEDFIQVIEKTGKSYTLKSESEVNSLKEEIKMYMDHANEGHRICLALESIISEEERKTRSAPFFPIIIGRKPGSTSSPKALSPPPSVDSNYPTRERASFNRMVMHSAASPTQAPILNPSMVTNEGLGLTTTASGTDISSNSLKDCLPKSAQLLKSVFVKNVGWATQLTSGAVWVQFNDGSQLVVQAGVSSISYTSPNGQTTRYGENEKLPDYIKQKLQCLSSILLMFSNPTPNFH
From the text: (§1) We assessed the selectivity of members of this scaffold using the KINOMEscan methodology across a near comprehensive panel of 442 kinases [[18,27]].

panel of 442 kinases [2] = target: T2, panel of 442 kinases (Homo sapiens, UniProt P00533, G719S); conditions: Compound Concentration 10 µM
T2 construct: purchased KINOMEscan
From the text: as §1

panel of 442 kinases [3] = target: T3, panel of 442 kinases (Homo sapiens, UniProt O75716); conditions: kinase STK16; compound concentration 10 µM
T3 construct: purchased KINOMEscan
From the text: as §1

T2 sequence (P00533 25-1210 G719S): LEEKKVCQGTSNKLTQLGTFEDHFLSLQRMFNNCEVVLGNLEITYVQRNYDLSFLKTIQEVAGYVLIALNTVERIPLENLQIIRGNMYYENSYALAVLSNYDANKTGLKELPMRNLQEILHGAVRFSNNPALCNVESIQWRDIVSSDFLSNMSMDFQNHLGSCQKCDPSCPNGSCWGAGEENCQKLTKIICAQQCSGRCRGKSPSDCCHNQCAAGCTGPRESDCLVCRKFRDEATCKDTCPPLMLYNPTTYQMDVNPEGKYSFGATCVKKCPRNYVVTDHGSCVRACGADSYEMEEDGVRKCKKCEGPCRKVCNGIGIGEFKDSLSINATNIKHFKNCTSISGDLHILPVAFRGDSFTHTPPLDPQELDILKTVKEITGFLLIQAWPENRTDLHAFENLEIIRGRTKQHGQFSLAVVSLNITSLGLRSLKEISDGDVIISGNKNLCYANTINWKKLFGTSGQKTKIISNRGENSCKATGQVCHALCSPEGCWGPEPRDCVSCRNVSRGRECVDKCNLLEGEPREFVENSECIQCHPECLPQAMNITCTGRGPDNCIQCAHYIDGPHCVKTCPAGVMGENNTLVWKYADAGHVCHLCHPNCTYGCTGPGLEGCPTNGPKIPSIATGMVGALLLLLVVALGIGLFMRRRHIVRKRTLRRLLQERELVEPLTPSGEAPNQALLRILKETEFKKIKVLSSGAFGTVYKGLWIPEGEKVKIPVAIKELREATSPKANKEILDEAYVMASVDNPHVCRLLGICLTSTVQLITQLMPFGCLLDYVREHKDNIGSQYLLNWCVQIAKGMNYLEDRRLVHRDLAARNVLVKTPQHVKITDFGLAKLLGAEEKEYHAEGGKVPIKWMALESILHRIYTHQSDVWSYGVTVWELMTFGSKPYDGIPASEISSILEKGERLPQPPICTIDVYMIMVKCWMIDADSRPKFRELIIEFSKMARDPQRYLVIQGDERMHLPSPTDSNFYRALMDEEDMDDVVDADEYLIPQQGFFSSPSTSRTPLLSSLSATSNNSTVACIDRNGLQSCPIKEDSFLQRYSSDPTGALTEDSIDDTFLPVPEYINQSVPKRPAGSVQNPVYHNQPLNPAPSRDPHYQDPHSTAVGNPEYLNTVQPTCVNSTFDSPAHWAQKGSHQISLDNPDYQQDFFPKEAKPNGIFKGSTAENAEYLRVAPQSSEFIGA
T3 sequence (O75716 whole entry): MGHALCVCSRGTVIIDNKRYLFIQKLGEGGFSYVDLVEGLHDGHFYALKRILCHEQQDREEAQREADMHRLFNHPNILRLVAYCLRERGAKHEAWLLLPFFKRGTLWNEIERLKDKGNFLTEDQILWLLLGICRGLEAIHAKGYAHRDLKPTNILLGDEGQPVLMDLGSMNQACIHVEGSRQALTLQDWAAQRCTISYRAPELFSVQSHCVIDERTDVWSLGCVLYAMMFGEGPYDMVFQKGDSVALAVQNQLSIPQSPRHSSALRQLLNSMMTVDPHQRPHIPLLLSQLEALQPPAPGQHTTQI

SMILES	KINOMEscan: PLK4 (panel of 442 kinases [1])	KINOMEscan: EGFR(G719S) (panel of 442 kinases [2])	% Ctrl, STK16 (panel of 442 kinases [3]) [% Ctrl]
CCOc1cc(C(=O)N2CCC(N3CCN(C)CC3)CC2)ccc1Nc1ncc2c(n1)N(C1CCCC1)c1ccccc1C(=O)N2C [Compound 26]	5.1	96	99
COc1cc(C(=O)N2CCC(N3CCN(C)CC3)CC2)ccc1Nc1ncc2c(n1)N(C1CCCC1)c1ccccc1C(=O)N2C [Compound 25, 11-cyclopentyl-2-((2-methoxy-4-(4-(4-methylpiperazin-1-yl)piperidine-1-carbonyl)phenyl)amino)-5-methyl-5H-benzo[e]pyrimido[5,4-b][1,4]diazepin-6(11H)-one]	0.25	86	75
COc1cc(C(=O)N2CCC(N3CCN(C)CC3)CC2)ccc1Nc1ncc2c(n1)N1CCc3cccc(c31)C(=O)N2C [Compound 24]	0.3	81	50
COc1cc(C(=O)N2CCC(N3CCN(C)CC3)CC2)ccc1Nc1ncc2c(n1)N(C)c1ccccc1C(=O)N2C [15 (LRRK2-IN-1)]	0	86	62

— article PMC3914206
